Common to all, as to format: biochemical
Assay [1] addresses T1, human neutrophil elastase (Homo sapiens, UniProt P08246).
T1 construct: purchased Serva Electrophoresis, Germany
T1 sequence (P08246 30-267): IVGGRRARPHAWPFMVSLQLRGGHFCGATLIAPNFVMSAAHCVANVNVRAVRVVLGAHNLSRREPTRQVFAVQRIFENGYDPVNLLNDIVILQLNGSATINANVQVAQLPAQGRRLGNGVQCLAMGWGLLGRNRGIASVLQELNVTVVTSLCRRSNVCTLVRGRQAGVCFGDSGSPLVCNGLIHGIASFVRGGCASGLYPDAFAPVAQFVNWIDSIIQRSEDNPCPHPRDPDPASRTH
Put plainly: Inhibition of human neutrophil elastase (MeOSuc-AAPV-pNA hydrolysis). As to conditions: 10 nM enzyme, 0.3 mM substrate, 37° C., pH 8; read-out: Human neutrophil elastase (hNE) IC50. The method, then: 2.2. Inhibition of Human Neutrophil Elastase
The ability of the peptides of the invention to inhibit the hydrolysis activity of human neutrophil elastase (Serva Electrophoresis, Germany) using the synthetic tetrapeptidic substrate MeOSuc-AAPV-pNA (Bachem, Switzerland) was determined as follows:
The above substrate (0.3 mM) and human neutrophil elastase (10 nM) were incubated at 37° C. with serial dilutions of the peptides (1% DMSO final) in assay buffer (50 mM Tris, pH 8, 300 mM NaCl, 0.01% Tween20). The release of pNA was followed by monitoring the change in absorbance at 405 nm for 30 minutes. Control assays with the same assay set-up as above, but without peptide, ran linearly. The dose-response data were fitted to the 4-parameter Hill equation providing the IC50 value using Graphpad (Prism 5).

Assay [2] addresses T2, porcine pancreatic elastase (Sus scrofa, UniProt P00772).
T2 construct: purchased Sigma, USA
Description: Inhibition of porcine pancreatic elastase (MeOSuc-AAA-pNA hydrolysis). To be noted: for IC50: 15 nM enzyme, 1 mM substrate, 37° C., pH8, read-out: Porcine pancreatic elastase (PPE) IC50; for hNE/PPE selectivity: ratio of PPE IC50 to hNE IC50. The protocol: 2.3. Inhibition of Porcine Pancreatic Elastase
The ability of the peptides of the invention to inhibit the hydrolysis activity of porcine pancreatic elastase (Sigma, USA) using the synthetic tripeptidic substrate MeOSuc-AAA-pNA (Bachem, Switzerland) was determined as follows:
The above substrate (1 mM) and […] porcine pancreatic elastase (15 nM) were incubated at 37° C. with serial dilutions of the peptides (0.5% DMSO final) in assay buffer (50 mM Tris, pH8, 100 mM NaCl, 0.01% Tween20). The release of pNA was followed by monitoring the change in absorbance at 405 nm for 30 minutes. Control assays with the same assay set-up as above, but without peptide, ran linearly. The dose-response data were fitted to the 4-parameter Hill equation providing the IC50 value using Graphpad (Prism 5).

The next assay addresses T3, human proteinase 3 (Homo sapiens, UniProt P24158).
T3 construct: purchased Elastin Products Company, USA
T3 sequence (P24158 28-248): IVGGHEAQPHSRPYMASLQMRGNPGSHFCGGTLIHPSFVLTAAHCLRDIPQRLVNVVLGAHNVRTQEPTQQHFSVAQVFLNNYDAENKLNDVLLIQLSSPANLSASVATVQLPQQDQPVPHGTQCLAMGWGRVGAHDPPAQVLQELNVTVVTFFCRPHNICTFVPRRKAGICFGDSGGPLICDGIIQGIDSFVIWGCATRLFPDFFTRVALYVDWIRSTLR
Description: Inhibition of human proteinase 3 (Boc-Ala-Ala-Nva-SBzl). To be noted: for IC50: 10 nM enzyme, 1 mM substrate, 37° C., pH7.4, read-out: Human proteinase 3 (hPr3) IC50; for hNE/hPr3 selectivity: ratio of hPr3 IC50 to hNE IC50. The protocol:
2.4. Inhibition of Human Proteinase 3
The inactivation of human proteinase 3 (Elastin Products Company, USA) by the peptides of the invention using synthetic tripeptidic substrate Boc-Ala-Ala-Nva-SBzl (Elastin Products Company, USA) was determined as follows:
The above substrate (1 mM), 4,4′-dithiodipyridine (250 μM) and human proteinase 3 (10 nM) were incubated at 37° C. with serial dilutions of the peptides (0.5% DMSO final) in assay buffer (50 mM Tris, pH7.4, 150 mM NaCl, 0.01% Tween20). The reaction process was followed by monitoring the change in absorbance at 340 nm for 30 minutes. Control assays with the same assay set-up as above, but without peptide, ran linearly. The dose-response data were fitted to the 4-parameter Hill equation providing the IC50 value using Graphpad (Prism 5).

Non-standard residues stand in square brackets, D forms with d. Residues, ends and D or L forms follow the SMILES beside them. hArg = N=C(N)NCCCC[C@H](N)C(=O)O; Aad = N[C@@H](CCCC(=O)O)C(=O)O; Nle = CCCC[C@H](N)C(=O)O

Broadly, the IC50 is the concentration needed to halve the response being measured.

T2 sequence (P00772 27-266): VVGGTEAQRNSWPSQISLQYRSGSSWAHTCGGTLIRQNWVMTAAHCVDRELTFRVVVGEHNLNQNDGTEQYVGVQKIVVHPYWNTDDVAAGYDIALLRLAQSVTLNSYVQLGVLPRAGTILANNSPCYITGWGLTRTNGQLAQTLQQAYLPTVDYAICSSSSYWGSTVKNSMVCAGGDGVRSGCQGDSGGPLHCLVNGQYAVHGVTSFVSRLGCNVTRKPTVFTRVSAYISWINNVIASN

On to `CC[C@H](C)[C@@H]1NC(=O)[C@H](CO)NC(=O)[C@H](C)NC(=O)[C@H]([C@@H](C)O)NC(=O)[C@H](CCC(=O)O)NC(=O)[C@H](CCCNC(=N)N)NC(=O)[C@@H]2CCCN2C(=O)[C@H]2CCCN2C(=O)[C@H]([C@@H](C)O)NC(=O)[C@H](CCCCN)NC(=O)[C@H](Cc2ccc(O)cc2)NC(=O)[C@@H]2CCCN2C(=O)[C@@H]2CCCN2C1=O` [Example 13, Cyclo(-Arg-Glu-Thr-Ala-Ser-Ile-Pro-Pro-Tyr-Lys-Thr-^DPro-Pro-)] (cyclo(RETASIPPYKT[dP]P)), for which, in assay [1], the IC50 worked out at 30.6 nM. Also, in assay [2], the IC50 is more than 100000 nM and the hNE/PPE selectivity is reported as more than 3268. Besides, at human proteinase 3, the 50% inhibitory concentration (IC50) was more than 100000 nM and the hNE/hPr3 selectivity is more than 3268.
For the compound `CC[C@H](C)[C@@H]1NC(=O)[C@H](CO)NC(=O)[C@H](C)NC(=O)[C@H]([C@@H](C)O)NC(=O)[C@H](CCC(=O)O)NC(=O)[C@H](CCCCNC(=N)N)NC(=O)[C@@H]2CCCN2C(=O)[C@H]2CCCN2C(=O)[C@H]([C@@H](C)O)NC(=O)[C@H](CCCCN)NC(=O)[C@H](CCC(N)=O)NC(=O)[C@@H]2CCCN2C(=O)[C@@H]2CCCN2C1=O` [Example 9, Cyclo(-hArg-Glu-Thr-Ala-Ser-Ile-Pro-Pro-Gln-Lys-Thr-^DPro-Pro-)] (cyclo([hArg]ETASIPPQKT[dP]P)), the IC50 in assay [1] turned out to be 23.7 nM. Further, in assay [2], the half-inhibitory concentration (IC50) came to 83400 nM and the hNE/PPE selectivity amounted to 3519. For the same compound, at human proteinase 3, the IC50 is 70100 nM and the hNE/hPr3 selectivity was 2958.
In the case of `CCCC[C@@H]1NC(=O)[C@H](CCCNC(=N)N)NC(=O)[C@@H]2CCCN2C(=O)[C@H]2CCCN2C(=O)[C@H](Cc2ccc(O)cc2)NC(=O)[C@H](CCCCN)NC(=O)[C@H](CCC(N)=O)NC(=O)[C@@H]2CCCN2C(=O)[C@@H]2CCCN2C(=O)[C@H]([C@@H](C)CC)NC(=O)[C@H](CO)NC(=O)[C@H](C)NC(=O)[C@H]([C@@H](C)O)NC1=O` [Example 6, Cyclo(-Arg-Nle-Thr-Ala-Ser-Ile-Pro-Pro-Gln-Lys-Tyr-^DPro-Pro-)] (cyclo(R[Nle]TASIPPQKY[dP]P)), the IC50 in assay [1] was found to be 15.5 nM. In assay [2], the IC50 stood at 2690 nM and the hNE/PPE selectivity amounted to 174. Also, at human proteinase 3, the IC50 stood at 2370 nM and the hNE/hPr3 selectivity amounted to 153.
On to `CC[C@H](C)[C@@H]1NC(=O)[C@H](CO)NC(=O)[C@H](C)NC(=O)[C@H]([C@@H](C)O)NC(=O)[C@H](CCC(=O)O)NC(=O)[C@H](CCCNC(=N)N)NC(=O)[C@@H]2CCCN2C(=O)[C@H]2CCCN2C(=O)[C@H](CCCC(N)=O)NC(=O)[C@H](CCCCN)NC(=O)[C@H](Cc2ccc(O)cc2)NC(=O)[C@@H]2CCCN2C(=O)[C@@H]2CCCN2C1=O` [Example 12, Cyclo(-Arg-Glu-Thr-Ala-Ser-Ile-Pro-Pro-Tyr-Lys-hGln-^DPro-Pro-)] (cyclo(RETASIPPYK[Aad](NH2)[dP]P)), for which, in assay [1], the IC50 was determined as 10 nM. For the same compound, in assay [2], the IC50 was more than 100000 nM and the hNE/PPE selectivity is given as more than 10000. At human proteinase 3, the IC50 was more than 100000 nM and the hNE/hPr3 selectivity is more than 10000.
`CC[C@H](C)[C@@H]1NC(=O)[C@H](CO)NC(=O)[C@H](C)NC(=O)[C@H]([C@@H](C)O)NC(=O)[C@H](C(C)C)NC(=O)[C@H](CCCNC(=N)N)NC(=O)[C@@H]2CCCN2C(=O)[C@H]2CCCN2C(=O)[C@H](Cc2ccc(O)cc2)NC(=O)[C@H](CCCCN)NC(=O)[C@H](CCC(N)=O)NC(=O)[C@@H]2CCCN2C(=O)[C@@H]2CCCN2C1=O` [Example 18, Cyclo(-Arg-Val-Thr-Ala-Ser-Ile-Pro-Pro-Gln-Lys-Tyr-^DPro-Pro-)] (cyclo(RVTASIPPQKY[dP]P)): in assay [1], the IC50 is 6.9 nM. In assay [2], the IC50 came out at 7200 nM and the hNE/PPE selectivity was 1043. Besides, at human proteinase 3, the IC50 was found to be 1800 nM and the hNE/hPr3 selectivity worked out at 261.

(Values after patent publication US10723765B2, “Beta-hairpin peptidomimetics as selective elastase inhibitors” (POLYPHOR AG, priority 2013, dated 2020).)
